These results are taken from patent publication US8012950B2, “Method to diagnose and treat degenerative joint disease” (Wisconsin Alumni Research Foundation, priority 2003, dated 2011).

The target in data set [1] is T1, recombinant human MMP-13 (collagenase 3) (Homo sapiens, UniProt P45452).
T1 construct: purchased Chondrex, Inc., Redmond, Wash; Cat. No. 3003
As to the kind of experiment: Matrix metalloproteinase-13 inhibition assay. Format: biochemical. Particulars: at 1 mM concentrations. As to the method:
Matrix Metalloproteinase-13 Inhibition Assay: The MMP-13 (collagenase 3) inhibition assay used a commercially available kit (Chondrex, Inc., Redmond, Wash., Cat. No. 3003) The recombinant human MMP-13 (collagenase 3) was activated by adding 5 μl of a 10 μg/ml solution of recombinant human MMP-13, 90 μl of sample dilution and reaction buffer (Solution B), and 5 μl of p-aminophenylmercuric acetate to each well of a microplate. The microplate was then incubated for 60 minutes at 35° C. Ten microliters of proteinase inhibitor was then added to each well to neutralize non-collagenolytic proteases in the sample solutions. Twenty five microliters of doxycycline, tetracycline, minocycline, COL-3, NPI-3469 (dissolved in buffer as previously described) and 25 μl of solution B were added to each well. Concentrations of the candidate inhibiting compounds in the initial mixture were prepared at 10^−7 to 10^−3 M using solution B. After the microplate was incubated at approximately 25° C. for 30 minutes, 10 μl of stop solution was added to each well and the fluorescence of each well was then determined using a fluorescent microplate reader set at 360 nm excitation/460nm emission. Data Analysis: The residual collagenolytic enzyme activity as a percentage of the control was calculated for each concentration of each inhibiting compound. All dilutions of each inhibiting compound were assayed in duplicate and a mean value was calculated for each well.

Data set [2] addresses T2, recombinant human cathepsin K (Homo sapiens, UniProt P43235).
T2 sequence (P43235 115-329): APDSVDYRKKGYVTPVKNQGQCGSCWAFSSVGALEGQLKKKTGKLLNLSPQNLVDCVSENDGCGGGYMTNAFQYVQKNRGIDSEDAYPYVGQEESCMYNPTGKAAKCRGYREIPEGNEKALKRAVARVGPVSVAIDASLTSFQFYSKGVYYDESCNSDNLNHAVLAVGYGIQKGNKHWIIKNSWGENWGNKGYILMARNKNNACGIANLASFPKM
The experiment in a line: Cathepsin K inhibition assay. Type of data set: biochemical. Here is the method:
Cathepsin K Inhibition Assay: The cathepsin K inhibition assay was modified from a previously described protocol (Votta et al., 1997). Doxycycline, tetracycline and minocycline were dissolved in 0.1 M Tris/0.15M NaCl buffer, pH 7.4. COL-3 was dissolved in 100% ethanol. NPI-3469 was dissolved in dimethylsulphoxide. Ten microliters of doxycycline, tetracycline, minocycline, COL-3, and NPI-3469 were dissolved in buffer and an equal volume of 0.125 μM rh-human cathepsin K standard dissolved in 100 mM sodium acetate buffer, pH 5.5 were mixed in a 96-well microplate and incubated at approximately 25° C. (room temperature) for 15 minutes. Concentrations of the candidate inhibiting compound in the initial mixture were prepared at 10^-7 to 10^-3M. Then 180 μl of an MCA substrate buffer containing 100 mM sodium acetate buffer pH 5.5, 2.5 mM dithiothreitol, 2.5 mM EDTA, and 5 μ[…] substrate (Peptides International, Louisville, KY) was added to the mixture. The microplate was incubated for 60 minutes at approximately 25° C. The fluorescence of each well was then determined using a fluorescent microplate reader set at 360 nm excitation/460 nm emission. Data Analysis: The residual collagenolytic enzyme activity as a percentage of the control was calculated for each concentration of each inhibiting compound. All dilutions of each inhibiting compound were assayed in duplicate and a mean value was calculated for each well.

A short description of data set [3]: Pharmacokinetic study of oral NPI 3469 in the dog. Type of data set: in vivo. To be noted: 4 beagles, single oral dose 1 mg/kg. As to the method: Pharmacokinetics of oral NPI 3469 (NAEJA Pharmaceuticals, Edmonton, Alberta, Canada) in the dog. We have conducted a pharmokinetic study in 4 beagles using a single oral dose of NPI 3469 given at 1 mg/kg and pharmacokinetic parameters have been determined.

Take `CN(C)[C@@H]1C(O)=C(C(N)=O)C(=O)[C@@]2(O)C(O)=C3C(=O)c4c(O)cccc4[C@@](C)(O)[C@H]3C[C@@H]12` [tetracycline]: the “inhibition of matrix metalloproteinase-13” value in data set [1] is reported as 49%.
Consider `CC(C)C[C@H](NC(=O)OCc1ccccc1)C(=O)NC1=CNC2(CCCC2)NC1=O` [NPI-3469, 5-(carbobenzoxy-L-leucyl)amino-2,2-tetramethylene-2,3-dihydro-1H-pyrimidin-4-one], for which the “inhibition of cathepsin K” value in data set [2] (at 1 μm) was found to be 47%; in data set [2] (at 10 μm) it was 75%. Besides, the “adverse effects during the treatment period” value in data set [3] was “No adverse effects”. Further, in data set [1], the “inhibition of matrix metalloproteinase-13 (in words)” value is on record as “did not inhibit”.
Turning to `CN(C)c1ccc(O)c2c1C[C@H]1C[C@H]3[C@H](N(C)C)C(O)=C(C(N)=O)C(=O)[C@@]3(O)C(O)=C1C2=O` [minocycline], the “inhibition of matrix metalloproteinase-13” value in data set [1] turned out to be 85%.
Consider `C[C@H]1c2cccc(O)c2C(=O)C2=C(O)[C@]3(O)C(=O)C(C(N)=O)=C(O)[C@@H](N(C)C)[C@@H]3[C@@H](O)[C@@H]21` [doxycycline], for which the “inhibition of matrix metalloproteinase-13 (in words)” value in data set [1] was “did not inhibit”.
Regarding `NC(=O)C1=C(O)CC2CC3Cc4cccc(O)c4C(=O)C3=C(O)C2(O)C1=O` (stereo not shown) [COL-3, 4-dedimethylaminosancycline], the “inhibition of cathepsin K” value is reported as 25% in data set [2] (at 1 μm) and 56% in data set [2] (at 10 μm). In addition, in data set [1], the “inhibition of matrix metalloproteinase-13” value is recorded as 57%.
